Results reported in US9133104B2 (Chroma Therapeutics Ltd., priority 2005, dated 2015).

Assays:
[1] = target: T1, histone deacetylase activity (HeLa nuclear extract); test: HDAC fluorescent activity assay (Biomol Fluor de Lys), HeLa nuclear extract; format: biochemical; settings: Fluor de Lys substrate, IC50 range
T1 construct: Histone deacetylase activity from crude nuclear extract derived from HeLa cells was used for screening
In short: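 Crude HeLa nuclear extract (20 mM Hepes, 100 mM KCl, 0.2 mM EDTA, 0.5 mM DTT, 0.2 mM PMSF, 20% glycerol) incubated with acetyl-lysine Fluor de Lys substrate ± inhibitor; developer generates fluorophore. Background-subtracted % of vehicle control; IC50 from eight-point variable-slope sigmoidal fit.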

Hela cancer cell line = test: Cell inhibition assay (SRB cell viability), Hela; format: cell-based; settings: 72 h, Hela cells, IC50 range
In short: (§1)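 Log-phase Hela, U937 and HUT cells were seeded at 1000 cells/well, grown 24 h, then exposed to compound (20 uM final) for 72 h. Viability was read by sulphorhodamine B staining and expressed as % inhibition relative to DMSO control. IC50 values came from sigmoidal variable-slope fits of eight concentrations.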

U937 cancer cell line = test: Cell inhibition assay (SRB cell viability), U937; format: cell-based; settings: 72 h, IC50 range
In short: as §1

HUT cancer cell line = test: Cell inhibition assay (SRB cell viability), HUT; format: cell-based; settings: HUT cells, 72 h, IC50 range
In short: as §1

[2] = Homo sapiens, U-937, U937 cells

| Compound | IC50 [1] [µM] | IC50 (Hela cancer cell line; Homo sapiens, HeLa) [µM] | IC50 (U937 cancer cell line; [2]) [µM] | IC50 (HUT cancer cell line) [µM] | IC50 (Hela cancer cell line) [µM] | IC50 (U937 cancer cell line; U937 cells) [µM] |
| --- | --- | --- | --- | --- | --- | --- |
| CC(C)(C)[C@H](NCc1ccc(CNCc2ccc3cc(C(=O)NO)sc3c2)cc1)C(=O)OC1CCCC1 [Compound 115, (S)-2-(4-{[(2-Hydroxycarbamoyl-benzo[b]thiophen-6-ylmethyl)-amino]-methyl}-benzylamino)-3,3-dimethyl-butyric acid cyclopentyl ester] | 0.101 to 1 | 0.33 to 3.3 | 0.33 to 3.3 | 0.33 to 3.3 | – | – |
| O=C(NO)c1cc2ccc(CNCc3ccc(CN[C@H](C(=O)OC4CCCC4)c4ccccc4)cc3)cc2s1 [Compound 124, (S)-(4-{[(2-Hydroxycarbamoyl-benzo[b]thiophen-6-ylmethyl)-amino]-methyl}-benzylamino)-phenyl-acetic acid cyclopentyl ester] | 0.101 to 1 | 0.33 to 3.3 | < 0.33 | 0.33 to 3.3 | – | – |
| CCOC(=O)[C@H](Cc1ccccc1)NCc1cncc(NC(=O)CCCCCCC(=O)NO)c1 [Compound 66, (S)-2-{[5-(7-Hydroxycarbamoyl-heptanoylamino)-pyridin-3-ylmethyl]-amino}-3-phenyl-propionic acid ethyl ester] | 0.101 to 1 | > 3.3 | > 3.3 | > 3.3 | – | – |
| CSCC[C@H](NCc1ccc(CNCc2ccc3cc(C(=O)NO)sc3c2)cc1)C(=O)OC1CCCC1 [Compound 110, (S)-2-(4-{[(2-Hydroxycarbamoyl-benzo[b]thiophen-6-ylmethyl)-amino]-methyl}-benzylamino)-4-methylsulfanyl-butyric acid cyclopentyl ester] | < 0.1 | 0.33 to 3.3 | < 0.33 | < 0.33 | – | – |
| CC(C)(C)OC[C@H](NCc1ccc(CNCc2ccc3cc(C(=O)NO)sc3c2)cc1)C(=O)OC1CCCC1 [Compound 109, (S)-3-tert-Butoxy-2-(4-{[(2-hydroxycarbarnoyl-benzo[b]thiophen-6-ylmethyl)-amino]-methyl}-benzylamino)-propionic acid cyclopentyl ester] | < 0.1 | 0.33 to 3.3 | < 0.33 | 0.33 to 3.3 | – | – |
| CC(C)(C)OC[C@H](NCc1ccc(NC(=O)CCCCCCC(=O)NO)cc1)C(=O)OC1CCCC1 [Compound 89, (S)-3-tert-Butoxy-2-[4-(7-hydroxycarbamoyl-heptanoylamino)-benzylamino]-propionic acid cyclopentyl ester] | 0.101 to 1 | > 3.3 | < 0.33 | 0.33 to 3.3 | – | – |
| O=C(CCCCCCC(=O)Nc1ccc(CN[C@H](C(=O)OC2CCCC2)c2ccccc2)cc1)NO [Compound 20, (S)-[4-(7-Hydroxycarbamoyl-heptanoylamino)-benzylamino]-phenyl-acetic acid cyclopentyl ester] | 0.101 to 1 | 0.33 to 3.3 | < 0.33 | 0.33 to 3.3 | – | – |
| O=C(CCCCCCC(=O)Nc1cccc(CNC(=O)N[C@@H](Cc2ccccc2)C(=O)OC2CCCC2)c1)NO [Compound 81, (S)-2-{3-[3-(7-Hydroxycarbamoyl-heptanoylamino)-benzyl]-ureido}-3-phenyl-propionic acid cyclopentyl ester] | < 0.1 | > 3.3 | > 3.3 | 0.33 to 3.3 | – | – |
| CC(C)C[C@H](NCc1ccc(CNCc2ccc3cc(C(=O)NO)sc3c2)cc1)C(=O)OC1CCCC1 [Compound 122] | < 0.1 | 0.33 to 3.3 | < 0.33 | 0.33 to 3.3 | – | – |
| O=C(NO)c1cc2ccc(CNCc3ccc(CN[C@H](C(=O)OC4CCCC4)C4CCCCC4)cc3)cc2s1 [Compound 116, (S)-Cyclohexyl-(4-{[(2-hydroxycarbamoyl-benzo[b]thiophen-6-ylmethyl)-amino]-methyl}-benzylamino)-acetic acid cyclopentyl ester] | 0.101 to 1 | > 3.3 | 0.33 to 3.3 | > 3.3 | – | – |
| CC(C)(C)OC(=O)[C@H](Cc1ccccc1)NCc1cncc(NC(=O)CCCCCCC(=O)NO)c1 [Compound 68, (S)-2-{[5-(7-Hydroxycarbamoyl-heptanoylamino)-pyridin-3-ylmethyl]-amino}-3-phenyl-propionic acid tert-butyl ester] | 0.101 to 1 | > 3.3 | 0.33 to 3.3 | 0.33 to 3.3 | – | – |
| O=C(CCCCCCC(=O)Nc1ccccc1CN[C@H](C(=O)OC1CCCC1)c1ccccc1)NO [Compound 40, (S)-[2-(7-Hydroxycarbamoyl-heptanoylamino)-benzylamino]-phenyl-acetic acid cyclopentyl ester] | > 1 | > 3.3 | > 3.3 | > 3.3 | – | – |

Second part, the molecule after the results:

| IC50 [1] [µM] | IC50 (Hela cancer cell line; Homo sapiens, HeLa) [µM] | IC50 (U937 cancer cell line; [2]) [µM] | IC50 (HUT cancer cell line) [µM] | IC50 (Hela cancer cell line) [µM] | IC50 (U937 cancer cell line; U937 cells) [µM] | Compound |
| --- | --- | --- | --- | --- | --- | --- |
| 0.101 to 1 | 0.33 to 3.3 | 0.33 to 3.3 | 0.33 to 3.3 | – | – | O=C(CCCCCCC(=O)Nc1cccc(C(=O)N[C@H](C(=O)OC2CCCC2)c2ccccc2)c1)NO [Compound 60, (S)-[3-(7-Hydroxycarbamoyl-heptanoylamino)-benzoylamino]-phenyl-acetic acid cyclopentyl ester] |
| 0.101 to 1 | > 3.3 | > 3.3 | > 3.3 | – | – | O=C(CCCCCCC(=O)N1CCc2c([nH]c3ccc(OCC(=O)N[C@H](C(=O)O)c4ccccc4)cc23)C1)NO [Compound 25] |
| 0.101 to 1 | – | – | 0.33 to 3.3 | > 3.3 | 0.33 to 3.3 | COc1ccc2[nH]c3c(c2c1)CCN(C(=O)CCCCCCC(=O)NO)C3C(=O)N[C@H](C(=O)OC1CCCC1)c1ccccc1 (stereo partly drawn) [Compound 13, (S)-{[2-(7-Hydroxycarbamoyl-heptanoyl)-6-methoxy-2,3,4,9-tetrahydro-1H-beta-carboline-1-carbonyl]amino}-phenyl-acetic acid cyclopentyl ester] |
| 0.101 to 1 | > 3.3 | 0.33 to 3.3 | 0.33 to 3.3 | – | – | CCOC(=O)[C@H](Cc1ccccc1)NC(=O)[C@@H]1Cc2c([nH]c3ccccc23)CN1C(=O)CCCCCCC(=O)NO [Compound 7, (S)-2-{[(S)-2-(7-Hydroxycarbamoyl-heptanoyl)-2,3,4,9-tetrahydro-1H-beta-carboline-3-carbonyl]-amino}-3-phenyl-propionic acid ethyl ester] |
| > 1 | > 3.3 | > 3.3 | > 3.3 | – | – | CCOC(=O)[C@H](Cc1ccccc1)NC(=O)C1CCCN1C(=O)CCCCCCC(=O)NO (stereo partly drawn) [Compound 55, (S)-2-{[1-(7-Hydroxycarbamoyl-heptanoyl)-pyrrolidine-2-carbonyl]-amino}-3-phenyl-propionic acid ethyl ester] |
| < 0.1 | 0.33 to 3.3 | 0.33 to 3.3 | 0.33 to 3.3 | – | – | O=C(CCCCCCC(=O)Nc1cccc(OCCCC(=O)N[C@H](C(=O)OC2CCCC2)c2ccccc2)c1)NO [Compound 92, (S)-{4-[3-(7-Hydroxycarbamoyl-heptanoylamino)-phenoxy]-butyrylamino}-phenyl-acetic acid cyclopentyl ester] |
| 0.101 to 1 | > 3.3 | > 3.3 | > 3.3 | – | – | O=C(CCCCCCC(=O)Nc1ccc(C(=O)N[C@H](C(=O)O)c2ccccc2)cc1)NO [Compound 18, (S)-[4-(7-Hydroxycarbamoyl-heptanoylamino)-benzoylamino]-phenyl-acetic acid] |
| < 0.1 | 0.33 to 3.3 | < 0.33 | 0.33 to 3.3 | – | – | O=C(CCCCCCC(=O)Nc1cccc(CCN[C@H](C(=O)OC2CCCC2)c2ccccc2)c1)NO [Compound 71, (S)-{2-[3-(7-Hydroxycarbamoyl-heptanoylamino)-phenyl]-ethylamino}-phenyl-acetic acid cyclopentyl ester] |
| 0.101 to 1 | – | – | > 3.3 | > 3.3 | > 3.3 | COc1ccc2[nH]c3c(c2c1)CCN(C(=O)CCCCCCC(=O)NO)C3C(=O)N[C@H](C(=O)O)c1ccccc1 (stereo partly drawn) [Compound 14, (S)-{[2-(7-Hydroxycarbamoyl-heptanoyl)-6-methoxy-2,3,4,9-tetrahydro-1H-beta-carboline-1-carbonyl]-amino}-phenyl-acetic acid] |
| 0.101 to 1 | > 3.3 | > 3.3 | > 3.3 | – | – | O=C(CCCCCCC(=O)N1CCc2c([nH]c3ccccc23)C1CN[C@H](C(=O)O)c1ccccc1)NO (stereo partly drawn) [Compound 43, (S)-{[2-(7-Hydroxycarbamoyl-heptanoyl)-2,3,4,9-tetrahydro-1H-beta-carbolin-1-ylmethyl]-amino}-phenyl-acetic acid] |
| < 0.1 | > 3.3 | > 3.3 | > 3.3 | – | – | O=C(CCCCCCC(=O)N1Cc2[nH]c3ccccc3c2C[C@@H]1C(=O)N[C@@H](Cc1ccccc1)C(=O)O)NO [Compound 6, (S)-2-{[(R)-2-(7-Hydroxycarbamoyl-heptanoyl)-2,3,4,9-tetrahydro-1H-beta-carboline-3-carbonyl]-amino}-3-phenyl-propionic acid] |
| > 1 | > 3.3 | 0.33 to 3.3 | 0.33 to 3.3 | – | – | CCOC(=O)[C@@H](NC(=O)[C@@H]1Cc2ccccc2CN1C(=O)CCCCCCC(=O)NO)c1ccccc1 [Compound 46, (S)-{[(S)-2-(7-Hydroxycarbamoyl-heptanoyl)-1,2,3,4-tetrahydro-isoquinoline-3-carbonyl]-amino}-phenyl-acetic acid ethyl ester] |
| > 1 | > 3.3 | > 3.3 | > 3.3 | – | – | O=C(CCCCCCC(=O)N1CCc2ccc(C(=O)N[C@H](C(=O)O)c3ccccc3)cc2C1)NO [Compound 16, (S)-{[2-(7-Hydroxycarbamoyl-heptanoyl)-1,2,3,4-tetrahydro-isoquinoline-7-carbonyl]-amino}-phenyl-acetic acid] |
